For six compounds, IC50 results are on record in patent US10035794B2, “Heterocyclic derivatives and their use in the treatment of neurological disorders” (NOVARTIS AG, priority 2011, dated 2018).

Each structure is given as a SMILES string.

One test addresses Human BACE-1 (Homo sapiens (Human), UniProt P56817). Nature of the test: Test 1: Inhibition of Human BACE-1. To be noted: read-out: BACE-1 IC50; mean IC50, recombinant BACE-1, pH 4.5.
Test [1] is described as follows: Test 4: Inhibition of Cellular Release of Amyloid Peptide 1-40. It is filed as cell-based, Chinese hamster. As to conditions: Cricetulus griseus, CHO, 24 h; read-out: Amyloid-β1-40 release IC50. The procedure: Chinese hamster ovary cells are transfected with the human gene for amyloid precursor protein. The cells are plated at a density of 8000 cells/well into 96-well microtiter plates and cultivated for 24 hours in DMEM cell culture medium containing 10% FCS. The test compound is added to the cells at various concentrations, and the cells are cultivated for 24 hours in the presence of the test compound.

The next test has as its target Human BACE-2 (Homo sapiens (Human), UniProt Q9Y5Z0). In words: Test 2: Inhibition of Human BACE-2. It counts as biochemical. As to conditions: mean IC50, recombinant BACE-2, pH 4.5. The text has this:
Test 2: Inhibition of Human BACE-2

Sequence of Human BACE-1 (P56817 46-457): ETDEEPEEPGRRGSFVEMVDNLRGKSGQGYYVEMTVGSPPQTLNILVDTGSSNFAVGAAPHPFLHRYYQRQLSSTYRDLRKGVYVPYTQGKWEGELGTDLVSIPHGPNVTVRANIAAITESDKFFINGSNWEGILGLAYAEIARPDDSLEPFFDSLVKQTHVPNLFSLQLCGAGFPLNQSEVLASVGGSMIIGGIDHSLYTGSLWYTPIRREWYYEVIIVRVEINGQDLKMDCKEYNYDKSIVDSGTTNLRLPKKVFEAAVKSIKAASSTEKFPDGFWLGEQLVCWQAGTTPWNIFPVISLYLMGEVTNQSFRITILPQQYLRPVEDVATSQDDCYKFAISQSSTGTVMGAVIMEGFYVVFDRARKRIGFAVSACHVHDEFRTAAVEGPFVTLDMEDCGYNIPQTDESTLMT
Sequence of Human BACE-2 (Q9Y5Z0 63-473): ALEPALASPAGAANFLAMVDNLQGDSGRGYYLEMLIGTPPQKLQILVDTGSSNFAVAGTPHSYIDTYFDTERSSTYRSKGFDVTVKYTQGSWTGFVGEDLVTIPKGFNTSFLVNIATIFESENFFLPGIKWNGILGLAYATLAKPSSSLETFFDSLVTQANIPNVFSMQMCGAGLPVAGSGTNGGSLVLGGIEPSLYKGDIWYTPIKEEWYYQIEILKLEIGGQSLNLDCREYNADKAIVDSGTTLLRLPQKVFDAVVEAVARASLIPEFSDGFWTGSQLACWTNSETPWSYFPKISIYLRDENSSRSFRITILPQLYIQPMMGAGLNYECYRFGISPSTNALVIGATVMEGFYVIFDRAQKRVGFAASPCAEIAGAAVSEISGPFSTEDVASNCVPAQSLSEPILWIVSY

As usually defined, the IC50 is the concentration that inhibits the measured activity by half. `NC1=NC(CF)(c2cccc(NC(=O)c3ccc(Cl)cn3)n2)COC1` (centres unmarked) [Example 3, 5-{6-[(5-Chloro-pyridine-2-carbonyl)-amino]-pyridin-2-yl}-5-fluoromethyl-5,6-dihydro-2H-[1,4]oxazin-3-yl-ammonium trifluoro acetate]: the IC50 is 2600 nM at Human BACE-1 and 140 nM in test [1].
For `NC1=NC(CF)(c2cccc(NC(=O)c3ccc(Br)cn3)n2)COC1` (centres unmarked) [Example 4, 5-Bromo-pyridine-2-carboxylic acid [6-(5-amino-3-fluoromethyl-3,6-dihydro-2H-[1,4]oxazin-3-yl)-pyridin-2-yl]-amide], the results for the IC50 (on Human BACE-1; in test [1]; on Human BACE-2) were 1600 nM, 98 nM and 1700 nM, respectively.
The corresponding values for `Cc1cc(C#N)cnc1C(=O)Nc1cccc(C2(CF)COCC(N)=N2)n1` (centres unmarked) [Example 5, 5-{6-[(5-Cyano-3-methyl-pyridine-2-carbonyl)-amino]-pyridin-2-yl}-5-fluoromethyl-5,6-dihydro-2H-[1,4]oxazin-3-yl-ammonium trifluoro acetate] are 270 nM, 40 nM and 1000 nM.
As to `C[C@@]1(c2nc(NC(=O)c3ncc(OCCCF)nc3N)ccc2F)CO[C@@](C)(C(F)(F)F)C(N)=N1` [Example 42, 3-Amino-5-(3-fluoro-propoxy)-pyrazine-2-carboxylic acid [6-((3R,6R)-5-amino-3,6-dimethyl-6-trifluoromethyl-3,6-dihydro-2H-[1,4]oxazin-3-yl)-5-fluoro-pyridin-2-yl]amide], the IC50 in test [1] came out at 72 nM.
In the case of `COCCn1ccc2nc(C(=O)Nc3ccc(F)c([C@]4(C)CO[C@@](C)(C(F)(F)F)C(N)=N4)n3)c(N)nc21` [Example 43, 3-Amino-5-(2-methoxy-ethyl)-5H-pyrrolo[2,3-b]pyrazine-2-carboxylic acid [6-((3R,6R)-5-amino-3,6-dimethyl-6-trifluoromethyl-3,6-dihydro-2H-[1,4]oxazin-3-yl)-5-fluoro-pyridin-2-yl]amide], in test [1], the IC50 was found to be 370 nM.
As to `C[C@@]1(c2nc(NC(=O)c3nc4ccn(CC(F)F)c4nc3N)ccc2F)CO[C@@](C)(C(F)(F)F)C(N)=N1` [Example 45, 3-Amino-5-(2,2-difluoro-ethyl)-5H-pyrrolo[2,3-b]pyrazine-2-carboxylic acid [6-((3R,6R)-5-amino-3,6-dimethyl-6-trifluoromethyl-3,6-dihydro-2H-[1,4]oxazin-3-yl)-5-fluoro-pyridin-2-yl]amide], in test [1], the IC50 was determined as 3600 nM.
